Values belong to the compound of their own block, whether it stands above or below them.
Experiments:
Type in all cases: cell-based
[1] = target: EGFR(D770_N771insSVD) expressing Ba/F3 stable cell line (Homo sapiens, UniProt P00533, DUP768-770, cells depend on it); assay: Cellular proliferation (Alamar Blue) assay, EGFR(D770_N771insSVD) Ba/F3; details: 72 hr, read-out: D770 IC50
Procedure: (§1) Cell line details: • 1. EGFR(D770_N771insSVD) expressing Ba/F3 stable cell line • 2. EGFR (A767_dupASV) expressing Ba/F3 stable cell line • 3. A431 cells • 4. EGFR (H773insNPH) expressing Ba/F3 stable cell line • 5. HER2 (A775_G776insYVMA) expressing Ba/F3 stable cell line
(§2) • 1. Seed cells at 5000 for A431 and 15,000 cells for Ba/F3 in 100 μL/well in complete media (for A431: DMEM with 10% FBS and for Ba/F3 cells: RPMI with 10% FBS) in 96-well tissue culture plate. Leave outer wells without cells for background measurements. Incubate at 37 degree Celsius in 5% CO2 humidified incubator for 16-18 hours. • 2. Add 0.025 ml of 5X concentration compound dilution or DMSO control. Final compound concentration range is 10-0.0005 μM prepared in 3-fold serial dilutions. Incubate for 72 hr at 37 degree Celsius in 5% CO2 humidified incubator. • 3. Add 0.0125 ml Alamar Blue™ reagent to each well with multi-channel pipette and tap gently on each side of the plate to mix. Incubate for 3 hours at 37 degree Celsius in 5% CO2 humidified incubator. • 4. […] Data analysis was performed using XLfit 5.5.0.5.

[2] = target: EGFR (A767_dupASV) expressing Ba/F3 stable cell line (Homo sapiens, UniProt P00533, DUP767-769, cells depend on it); assay: Cellular proliferation (Alamar Blue) assay, EGFR (A767_dupASV) Ba/F3; details: 72 hr, read-out: A767 IC50
Procedure: as §1, §2

[3] = system: A431 cells; assay: Cellular proliferation (Alamar Blue) assay, A431 cells; details: Homo sapiens, A-431, 72 h, A431 cells; 72 hr; Alamar Blue; read-out: A431 IC50
Procedure: as §2

[4] = target: HER2 (A775_G776insYVMA) expressing Ba/F3 stable cell line (Homo sapiens, UniProt P04626, DUP772-775, cells depend on it); assay: Cellular proliferation (Alamar Blue) assay, HER2 (A775_G776insYVMA) Ba/F3; details: HER2 (A775_G776insYVMA) Ba/F3 cells; 72 hr; Alamar Blue; read-out: YVMA IC50
Procedure: as §1, §2

EGFR (A767_dupASV) expressing Ba/F3 stable cell line, sequence (P00533 with tags, fused parts or gaps DUP767-769): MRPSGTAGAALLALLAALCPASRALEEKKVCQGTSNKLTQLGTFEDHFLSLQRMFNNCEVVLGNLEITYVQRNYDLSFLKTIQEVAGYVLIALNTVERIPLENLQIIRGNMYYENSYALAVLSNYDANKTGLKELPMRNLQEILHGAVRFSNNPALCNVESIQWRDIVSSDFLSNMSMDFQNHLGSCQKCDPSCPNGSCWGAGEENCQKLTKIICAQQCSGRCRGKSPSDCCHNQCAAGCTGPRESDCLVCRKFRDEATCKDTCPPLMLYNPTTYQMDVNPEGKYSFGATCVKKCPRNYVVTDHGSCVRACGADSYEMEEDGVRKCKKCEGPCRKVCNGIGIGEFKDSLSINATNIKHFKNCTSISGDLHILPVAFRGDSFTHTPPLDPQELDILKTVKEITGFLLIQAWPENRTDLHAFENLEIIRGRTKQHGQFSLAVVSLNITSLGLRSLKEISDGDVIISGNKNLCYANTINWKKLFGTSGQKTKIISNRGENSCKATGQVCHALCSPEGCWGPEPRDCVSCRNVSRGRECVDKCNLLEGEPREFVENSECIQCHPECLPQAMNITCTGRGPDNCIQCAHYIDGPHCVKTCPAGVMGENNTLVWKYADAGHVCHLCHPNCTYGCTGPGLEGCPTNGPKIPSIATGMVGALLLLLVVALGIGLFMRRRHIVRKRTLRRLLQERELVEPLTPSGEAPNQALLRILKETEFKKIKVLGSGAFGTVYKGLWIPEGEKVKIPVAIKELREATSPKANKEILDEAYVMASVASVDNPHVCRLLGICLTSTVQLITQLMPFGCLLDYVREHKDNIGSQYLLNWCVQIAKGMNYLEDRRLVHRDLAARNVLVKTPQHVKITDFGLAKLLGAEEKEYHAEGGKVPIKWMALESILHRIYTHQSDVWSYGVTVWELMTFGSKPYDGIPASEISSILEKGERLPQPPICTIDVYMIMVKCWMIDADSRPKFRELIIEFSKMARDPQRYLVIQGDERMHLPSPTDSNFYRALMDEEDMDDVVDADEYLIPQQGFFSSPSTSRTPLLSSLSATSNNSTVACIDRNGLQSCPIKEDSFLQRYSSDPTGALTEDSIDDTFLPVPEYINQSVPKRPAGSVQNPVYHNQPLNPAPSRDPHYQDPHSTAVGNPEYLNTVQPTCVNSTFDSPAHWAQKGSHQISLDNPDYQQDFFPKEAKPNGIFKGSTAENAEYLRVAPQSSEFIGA
EGFR(D770_N771insSVD) expressing Ba/F3 stable cell line, sequence (P00533 with tags, fused parts or gaps DUP768-770): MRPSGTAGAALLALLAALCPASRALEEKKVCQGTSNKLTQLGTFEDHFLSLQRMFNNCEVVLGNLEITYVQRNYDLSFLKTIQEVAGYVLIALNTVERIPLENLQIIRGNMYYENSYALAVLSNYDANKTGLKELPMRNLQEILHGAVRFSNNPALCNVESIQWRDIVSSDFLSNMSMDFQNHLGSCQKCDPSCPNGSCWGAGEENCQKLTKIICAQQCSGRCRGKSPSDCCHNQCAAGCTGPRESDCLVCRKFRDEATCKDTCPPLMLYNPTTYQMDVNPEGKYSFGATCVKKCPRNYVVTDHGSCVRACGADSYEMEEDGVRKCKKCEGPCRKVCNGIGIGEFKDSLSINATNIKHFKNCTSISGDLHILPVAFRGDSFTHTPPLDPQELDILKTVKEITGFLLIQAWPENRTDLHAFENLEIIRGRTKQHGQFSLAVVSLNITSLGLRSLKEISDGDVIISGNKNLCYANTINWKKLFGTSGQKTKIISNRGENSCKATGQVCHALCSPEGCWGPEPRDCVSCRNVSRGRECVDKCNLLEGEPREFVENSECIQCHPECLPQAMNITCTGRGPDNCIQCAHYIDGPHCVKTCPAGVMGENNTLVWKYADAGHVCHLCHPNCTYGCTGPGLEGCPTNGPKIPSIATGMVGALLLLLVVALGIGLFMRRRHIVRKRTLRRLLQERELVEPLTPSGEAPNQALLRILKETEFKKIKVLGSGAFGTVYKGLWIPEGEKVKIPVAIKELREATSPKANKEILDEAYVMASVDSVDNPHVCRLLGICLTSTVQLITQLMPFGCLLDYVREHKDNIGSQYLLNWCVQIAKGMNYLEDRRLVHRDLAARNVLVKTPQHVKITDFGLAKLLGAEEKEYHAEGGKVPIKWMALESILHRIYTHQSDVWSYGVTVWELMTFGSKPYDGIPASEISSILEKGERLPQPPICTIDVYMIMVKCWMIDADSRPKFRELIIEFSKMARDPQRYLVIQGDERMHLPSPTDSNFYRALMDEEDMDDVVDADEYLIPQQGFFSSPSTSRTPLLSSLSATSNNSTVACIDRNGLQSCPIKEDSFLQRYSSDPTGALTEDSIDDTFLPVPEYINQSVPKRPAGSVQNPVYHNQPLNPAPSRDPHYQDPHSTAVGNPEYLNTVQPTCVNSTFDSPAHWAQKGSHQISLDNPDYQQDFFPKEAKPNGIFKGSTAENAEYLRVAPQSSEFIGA
HER2 (A775_G776insYVMA) expressing Ba/F3 stable cell line, sequence (P04626 with tags, fused parts or gaps DUP772-775): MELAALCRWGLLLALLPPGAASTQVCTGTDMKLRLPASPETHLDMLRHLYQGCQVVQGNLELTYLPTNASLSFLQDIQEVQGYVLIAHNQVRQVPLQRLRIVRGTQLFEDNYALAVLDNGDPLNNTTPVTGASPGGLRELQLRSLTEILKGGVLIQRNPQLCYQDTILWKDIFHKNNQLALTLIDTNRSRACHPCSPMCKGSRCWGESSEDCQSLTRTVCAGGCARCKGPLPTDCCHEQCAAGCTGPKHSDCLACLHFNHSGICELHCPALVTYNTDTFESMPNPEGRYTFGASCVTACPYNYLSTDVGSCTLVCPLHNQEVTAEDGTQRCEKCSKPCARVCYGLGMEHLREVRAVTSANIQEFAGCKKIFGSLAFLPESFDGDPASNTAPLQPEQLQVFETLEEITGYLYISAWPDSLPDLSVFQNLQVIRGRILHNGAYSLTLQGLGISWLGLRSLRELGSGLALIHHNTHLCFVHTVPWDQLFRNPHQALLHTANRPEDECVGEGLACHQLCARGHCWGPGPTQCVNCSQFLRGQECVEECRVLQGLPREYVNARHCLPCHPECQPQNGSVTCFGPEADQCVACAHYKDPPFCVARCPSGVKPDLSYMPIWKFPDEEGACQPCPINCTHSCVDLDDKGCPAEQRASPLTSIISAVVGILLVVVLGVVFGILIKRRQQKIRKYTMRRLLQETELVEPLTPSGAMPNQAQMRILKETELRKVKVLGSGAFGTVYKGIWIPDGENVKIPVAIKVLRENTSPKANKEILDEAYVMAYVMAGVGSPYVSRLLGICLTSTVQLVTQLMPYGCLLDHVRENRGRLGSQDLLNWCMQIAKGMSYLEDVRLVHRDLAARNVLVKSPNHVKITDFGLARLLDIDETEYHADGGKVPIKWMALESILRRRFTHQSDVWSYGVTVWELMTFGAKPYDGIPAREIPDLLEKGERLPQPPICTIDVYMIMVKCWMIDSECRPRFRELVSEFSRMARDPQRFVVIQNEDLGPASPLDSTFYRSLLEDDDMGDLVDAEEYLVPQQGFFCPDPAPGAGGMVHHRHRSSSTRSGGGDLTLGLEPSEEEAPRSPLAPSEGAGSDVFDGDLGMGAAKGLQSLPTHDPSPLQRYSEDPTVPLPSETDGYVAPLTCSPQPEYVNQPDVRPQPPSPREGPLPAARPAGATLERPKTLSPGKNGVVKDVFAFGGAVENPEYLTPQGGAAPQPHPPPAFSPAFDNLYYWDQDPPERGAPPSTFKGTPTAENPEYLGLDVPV

- GI50 [1]: 295 nM
- GI50 [2]: 293 nM
- IC50 [3]: > 10000 nM
- GI50 [4]: 262 nM
Structure (SMILES): C=CC(=O)Nc1ccc(F)c(Nc2nc(Nc3cnn(C)c3)ncc2-c2ccc(F)c(OC)c2)c1 [Compound 4, N-(4-fluoro-3-((5-(4-fluoro-3-methoxyphenyl)-2-((1-methyl-1H-pyrazol-4-yl)amino)pyrimidin-4-yl)amino)phenyl)acrylamide]

- GI50 [1]: 930 nM
- GI50 [2]: 721 nM
- IC50 [3]: > 10000 nM
- GI50 [4]: 838 nM
Structure (SMILES): C=CC(=O)Nc1ccc(F)c(Nc2nc(Nc3cnn(C)c3)ncc2-c2cc(F)ccc2OC)c1 [Compound 9, N-(4-fluoro-3-((5-(5-fluoro-2-methoxyphenyl)-2-((1-methyl-1H-pyrazol-4-yl)amino)pyrimidin-4-yl)amino)phenyl)acrylamide]

- GI50 [1]: 3940 nM
- GI50 [2]: 3230 nM
- IC50 [3]: > 10000 nM
Structure (SMILES): C=CC(=O)Nc1ccc(F)c(Nc2nc(Nc3cnn(C)c3)ncc2-c2ccc(C(F)(F)F)cc2OC)c1 [Compound 10, N-(4-fluoro-3-((5-(2-methoxy-4-(trifluoromethyl)phenyl)-2-((1-methyl-1H-pyrazol-4-yl)amino)pyrimidin-4-yl)amino)phenyl)acrylamide]

- GI50 [1]: 329 nM
- GI50 [2]: 428 nM
- IC50 [3]: > 10000 nM
- GI50 [4]: 890 nM
Structure (SMILES): C=CC(=O)Nc1ccc(F)c(Nc2nc(Nc3cnn(C)c3)ncc2-c2ccc(OC)c(C(F)(F)F)c2)c1 [Compound 22, N-(4-fluoro-3-((5-(4-methoxy-3-(trifluoromethyl)phenyl)-2-((1-methyl-1H-pyrazol-4-yl)amino)pyrimidin-4-yl)amino)phenyl)acrylamide]

- GI50 [1]: 942 nM
- GI50 [2]: 737 nM
- IC50 [3]: 4510 nM
Structure (SMILES): C=CC(=O)Nc1ccc(F)c(Nc2nc(Nc3cnn(C)c3)ncc2-c2cc(F)cc(N(C)C)c2)c1 [Compound 42, N-(3-((5-(3-(dimethylamino)-5-fluorophenyl)-2-((1-methyl-1H-pyrazol-4-yl)amino)pyrimidin-4-yl)amino)-4-fluorophenyl)acrylamide]

- GI50 [1]: 104 nM
- GI50 [2]: 307 nM
- IC50 [3]: 194 nM
Structure (SMILES): C=CC(=O)Nc1ccc(F)c(Nc2nc(Nc3cn(C)nc3Cl)ncc2-c2ccc(F)c(Cl)c2)c1 [Compound 52, N-(3-((2-((3-chloro-1-methyl-1H-pyrazol-4-yl)amino)-5-(3-chloro-4-fluorophenyl)pyrimidin-4-yl)amino)-4-fluorophenyl)acrylamide]

- GI50 [1]: 312 nM
- GI50 [2]: 248 nM
- IC50 [3]: 105 nM
Structure (SMILES): C=CC(=O)Nc1ccc(F)c(Nc2nc(Nc3cnn(C)c3)ncc2-c2ccc(N3CC(OC)C3)c(F)c2)c1 [Compound 79, N-(4-fluoro-3-((5-(3-fluoro-4-(3-methoxyazetidin-1-yl)phenyl)-2-((1-methyl-1H-pyrazol-4-yl)amino)pyrimidin-4-yl)amino)phenyl)acrylamide]

- GI50 [1]: 906 nM
- GI50 [2]: 343 nM
- IC50 [3]: 3010 nM
Structure (SMILES): C=CC(=O)Nc1ccc(F)c(Nc2nc(Nc3cnn(C)c3)ncc2-c2ccc(N3CCN(C)CC3)c(F)c2)c1 [Compound 81, N-(4-fluoro-3-((5-(3-fluoro-4-(4-methylpiperazin-1-yl)phenyl)-2-((1-methyl-1H-pyrazol-4-yl)amino)pyrimidin-4-yl)amino)phenyl)acrylamide]

- GI50 [1]: 1010 nM
- GI50 [2]: 376 nM
- IC50 [3]: 1060 nM
Structure (SMILES): C=CC(=O)Nc1ccc(F)c(Nc2nc(Nc3cnn(C)c3)ncc2-c2ccc(N3CC(N(C)C)C3)c(F)c2)c1 [Compound 83, N-(3-((5-(4-(3-(dimethylamino)azetidin-1-yl)-3-fluorophenyl)-2-((1-methyl-1H-pyrazol-4-yl)amino)pyrimidin-4-yl)amino)-4-fluorophenyl)acrylamide]

- GI50 [1]: 2940 nM
- GI50 [2]: 2240 nM
- IC50 [3]: 3580 nM
Structure (SMILES): C=CC(=O)Nc1ccc(F)c(Nc2nc(Nc3cnn(C)c3)ncc2-c2ccc(N(C)CCN(C)C)c(F)c2)c1 [Compound 86, N-(3-((5-(4-((2-(dimethylamino)ethyl)(methyl)amino)-3-fluorophenyl)-2-((1-methyl-1H-pyrazol-4-yl)amino)pyrimidin-4-yl)amino)-4-fluorophenyl)acrylamide]

- GI50 [1]: 25 nM
- GI50 [2]: 14 nM
- IC50 [3]: 20 nM
Structure (SMILES): [2H]C([2H])=CC(=O)Nc1ccc(F)c(Nc2nc(Nc3cnn(C)c3)ncc2-c2cnc(F)c(F)c2)c1 [Compound 103, N-(3-((5-(5,6-difluoropyridin-3-yl)-2-((1-methyl-1H-pyrazol-4-yl)amino)pyrimidin-4-yl)amino)-4-fluorophenyl)acrylamide-3,3-d2]

- GI50 [1]: 939 nM
- GI50 [2]: 1730 nM
- IC50 [3]: 326 nM
Structure (SMILES): C=C(F)C(=O)Nc1ccc(F)c(Nc2nc(Nc3cnn(C)c3)ncc2-c2ccc(Br)c(F)c2)c1 [Compound 177, N-(3-((5-(4-bromo-3-fluorophenyl)-2-((1-methyl-1H-pyrazol-4-yl)amino)pyrimidin-4-yl)amino)-4-fluorophenyl)-2-fluoroacrylamide]

More lines, now with the values behind:

Structure (SMILES): C=CC(=O)Nc1ccc(F)c(Nc2nc(Nc3cnn(C)c3)ncc2-c2ccc(OC)c(OC)c2)c1 [Compound 2, N-(3-((5-(3,4-dimethoxyphenyl)-2-((1-methyl-1H-pyrazol-4-yl)amino)pyrimidin-4-yl)amino)-4-fluorophenyl)acrylamide]
- GI50 [1]: 1050 nM
- GI50 [2]: 896 nM
- IC50 [3]: > 10000 nM

Structure (SMILES): C=CC(=O)Nc1ccc(F)c(Nc2nc(Nc3cnn(C)c3)ncc2-c2cc(OC)ccc2Cl)c1 [Compound 8, N-(3-((5-(2-chloro-5-methoxyphenyl)-2-((1-methyl-1H-pyrazol-4-yl)amino)pyrimidin-4-yl)amino)-4-fluorophenyl)acrylamide]
- GI50 [1]: 1590 nM
- GI50 [2]: 749 nM
- IC50 [3]: > 10000 nM
- GI50 [4]: 644 nM

Structure (SMILES): C=CC(=O)Nc1ccc(F)c(Nc2nc(Nc3cnn(C)c3)ncc2-c2ccc(F)cc2Cl)c1 [Compound 12, N-(3-((5-(2-chloro-4-fluorophenyl)-2-((1-methyl-1H-pyrazol-4-yl)amino)pyrimidin-4-yl)amino)-4-fluorophenyl)acrylamide]
- GI50 [1]: 363 nM
- GI50 [2]: 919 nM

Structure (SMILES): C=CC(=O)Nc1ccc(F)c(Nc2nc(Nc3cnn(C)c3)ncc2-c2cc(Cl)ccc2OC)c1 [Compound 23, N-(3-((5-(5-chloro-2-methoxyphenyl)-2-((1-methyl-1H-pyrazol-4-yl)amino)pyrimidin-4-yl)amino)-4-fluorophenyl)acrylamide]
- GI50 [1]: 2730 nM
- GI50 [2]: 2760 nM
- IC50 [3]: 2890 nM

Structure (SMILES): C=CC(=O)Nc1ccc(F)c(Nc2nc(Nc3cnn(C)c3)ncc2-c2cc(C(F)(F)F)ccc2F)c1 [Compound 24, N-(4-fluoro-3-((5-(2-fluoro-5-(trifluoromethyl)phenyl)-2-((1-methyl-1H-pyrazol-4-yl)amino)pyrimidin-4-yl)amino)phenyl)acrylamide]
- GI50 [1]: 300 nM
- GI50 [2]: 321 nM
- IC50 [3]: 9420 nM
- GI50 [4]: 588 nM

Structure (SMILES): C=CC(=O)Nc1ccc(F)c(Nc2nc(Nc3cnn(C)c3)ncc2-c2cnc(F)c(F)c2)c1 [Compound 29, N-(3-((5-(5,6-difluoropyridin-3-yl)-2-((1-methyl-1H-pyrazol-4-yl)amino)pyrimidin-4-yl)amino)-4-fluorophenyl)acrylamide]
- GI50 [1]: 8 nM
- GI50 [2]: 7 nM
- IC50 [3]: 20 nM
- GI50 [4]: 21 nM

Structure (SMILES): C=CC(=O)Nc1ccc(F)c(Nc2nc(Nc3cnn(C)c3)ncc2-c2cnc(Cl)c(C(F)(F)F)c2)c1 [Compound 44, N-(3-((5-(6-chloro-5-(trifluoromethyl)pyridin-3-yl)-2-((1-methyl-1H-pyrazol-4-yl)amino)pyrimidin-4-yl)amino)-4-fluorophenyl)acrylamidet]
- GI50 [1]: 24 nM
- GI50 [2]: 15 nM
- IC50 [3]: 52 nM
- GI50 [4]: 36 nM

Structure (SMILES): C=CC(=O)Nc1ccc(F)c(Nc2nc(Nc3cnn(C)c3)ncc2-c2ccc3c(c2)CCN3C)c1 [Compound 59, N-(4-fluoro-3-((2-((1-methyl-1H-pyrazol-4-yl)amino)-5-(1-methylindolin-5-yl)pyrimidin-4-yl)amino)phenyl)acrylamide]
- GI50 [1]: 300 nM
- GI50 [2]: 957 nM
- IC50 [3]: 575 nM

Structure (SMILES): C=CC(=O)Nc1ccc(F)c(Nc2nc(Nc3cnn(C)c3)ncc2-c2cc(F)cc(OCC(F)(F)F)c2)c1 [Compound 176, N-(4-fluoro-3-((5-(3-fluoro-5-(2,2,2-trifluoroethoxy)phenyl)-2-((1-methyl-1H-pyrazol-4-yl)amino)pyrimidin-4-yl)amino)phenyl)acrylamide]
- GI50 [1]: 1130 nM
- GI50 [2]: 859 nM
- GI50 [4]: > 10000 nM

Structure (SMILES): CN(C)C/C=C/C(=O)Nc1ccc(F)c(Nc2nc(Nc3cnn(C)c3)ncc2-c2ccc3c(c2)OCC3)c1 [Compound 178, (E)-N-(3-((5-(2,3-dihydrobenzofuran-6-yl)-2-((1-methyl-1H-pyrazol-4-yl)amino)pyrimidin-4-yl)amino)-4-fluorophenyl)-4-(dimethylamino)but-2-enamide]
- GI50 [1]: 927 nM
- GI50 [2]: 722 nM
- IC50 [3]: 350 nM

Source: patent publication US20230416232A1, “PYRIMIDINE COMPOUNDS, COMPOSITIONS, AND MEDICINAL APPLICATIONS THEREOF” (Blueprint Medicines Corporation, priority 2020, published 2023)
